Tests used:
Assay in all cases: Test D pre-/postemergence plant response
Type in all cases: in vivo
[1] = test system: prickly sida (Sida spinosa)
Description: (§1) Seeds of plant species selected from bermudagrass (Cynodon dactylon), Surinam grass (Brachiaria decumbens), large crabgrass (Digitaria sanguinalis), green foxtail (Setaria viridis), goosegrass (Eleusine indica), johnsongrass (Sorghum halepense), kochia (Kochia scoparia), morningglory (pitted morningglory, Ipomoea lacunosa), nutsedge (purple nutsedge, Cyperus rotundus), ragweed (common ragweed, Ambrosia elatior), black mustard (Brassica nigra), guineagrass (Panicum maximum), dallisgrass (Paspalum dilatatum), barnyardgrass (Echinochloa crus-galli), sandbur (southern sandbur, Cenchrus echinatus), sowthistle (common sowthistle, Sonchus oleraceous), prickly sida (Sida spinosa), Italian ryegrass (Lolium multiflorum), purslane (common purslane, Portulaca oleracea), signalgrass (broadleaf signalgrass, Brachiaria platyphylla), groundsel (common groundsel, Senecio vulgaris), chickweed (common chickweed, Stellaria media), dayflower (Virginia (VA) dayflower, Commelina virginica), bluegrass (annual bluegrass, Poa annua), naked crabgrass (Digitaria nuda), itchgrass (Rottboellia cochinchinensis), quackgrass (Elytrigia repens), field bindweed (Convolvulus arvensis), spanishneedles (Bidens bipinnata), mallow (common mallow, Malva sylvestris) and Russian thistle (Salsola kali), were planted into a blend of loam soil and sand and treated preemergence with test chemicals formulated in a non-phytotoxic solvent mixture which included a surfactant. At the same time, plants from these weed species were treated with postemergence applications of the test chemicals formulated in the same manner. Plants ranged in height from 2 to 18 cm (1- to 4-leaf stage) for postemergence treatments.
(§2) Treated plants and controls were maintained in a greenhouse for 14 to 21 days, after which time all species were visually evaluated and compared to controls. Plant response ratings, summarized in Table D, are based on a scale of 0 to 100 where 0 is no effect and 100 is complete control. A dash (-) response means no test result.

[2] = test system: nutsedge (purple nutsedge, Cyperus rotundus)
Description: as §1, §2

kochia (Kochia scoparia) = test system: kochia (Kochia scoparia)
Description: as §1, §2

[3] = test system: green foxtail (Setaria viridis)
Description: as §1, §2

[4] = test system: sowthistle (common sowthistle, Sonchus oleraceous)
Description: as §1, §2

[5] = test system: goosegrass (Eleusine indica)
Description: as §1, §2

[6] = test system: purslane (common purslane, Portulaca oleracea)
Description: as §1, §2

[7] = test system: bluegrass (annual bluegrass, Poa annua)
Description: as §1, §2

[8] = test system: chickweed (common chickweed, Stellaria media)
Description: as §1, §2

[9] = test system: itchgrass (Rottboellia cochinchinensis)
Description: as §1, §2

[10] = test system: dallisgrass (Paspalum dilatatum)
Description: as §1, §2

[11] = test system: large crabgrass (Digitaria sanguinalis)
Description: as §1, §2

[12] = test system: johnsongrass (Sorghum halepense)
Description: as §1, §2

[13] = test system: morningglory (pitted morningglory, Ipomoea lacunosa)
Description: as §1, §2

[14] = test system: barnyardgrass (Echinochloa crus-galli)
Description: as §1, §2

[15] = test system: ragweed (common ragweed, Ambrosia elatior)
Description: as §1, §2

[16] = Postemergence, 16 g ai/ha, scale 0 to 100
[17] = Postemergence, 31 g ai/ha, scale 0 to 100
[18] = Postemergence, 125 g ai/ha, scale 0 to 100 (0 no effect, 100 complete control)
[19] = Postemergence, 62 g ai/ha, scale 0 to 100 (0 no effect, 100 complete control)
[20] = Preemergence, 16 g ai/ha, scale 0 to 100, 0 no effect, 100 complete control
[21] = Preemergence, 31 g ai/ha, scale 0 to 100 (0 no effect, 100 complete control)
[22] = Preemergence, 62 g ai/ha, scale 0 to 100
[23] = Preemergence, 125 g ai/ha, scale 0 to 100
[24] = Postemergence, 31 g ai/ha, scale 0 to 100 (0 no effect, 100 complete control)

Cc1ccc(Cl)cc1-n1c(-c2ccccc2)ncc(C(=O)C2=C(O)CCCC2=O)c1=O [Compound 52]
Plant response rating, Prickly Sida [1, 16]: 65 | Plant response rating, Prickly Sida [1, 17]: 65 | Plant response rating, Prickly Sida [1, 18]: 90 | Plant response rating, Prickly Sida [1, 19]: 80 | Plant response rating, Prickly Sida [1, 20]: 0 | Plant response rating, Prickly Sida [1, 21]: 0 | Plant response rating, Prickly Sida [1, 22]: 50 | Plant response rating, Prickly Sida [1, 23]: 100 | Plant response rating, Nutsedge, Purple [2, 16]: 0 | Plant response rating, Nutsedge, Purple [2, 17]: 20 | Plant response rating, Nutsedge, Purple [2, 18]: 40 | Plant response rating, Nutsedge, Purple [2, 19]: 35 | Plant response rating, Nutsedge, Purple [2, 20]: 0 | Plant response rating, Nutsedge, Purple [2, 21]: 5 | Plant response rating, Nutsedge, Purple [2, 22]: 30 | Plant response rating, Nutsedge, Purple [2, 23]: 40 | Plant response rating, Kochia (kochia (Kochia scoparia); [16]): 0 | Plant response rating, Kochia (kochia (Kochia scoparia); [17]): 0 | Plant response rating, Kochia (kochia (Kochia scoparia); [18]): 40 | Plant response rating, Kochia (kochia (Kochia scoparia); [19]): 0 | Plant response rating, Kochia (kochia (Kochia scoparia); [21]): 25 | Plant response rating, Kochia (kochia (Kochia scoparia); [22]): 25 | Plant response rating, Kochia (kochia (Kochia scoparia); [23]): 35 | Plant response rating, Foxtail, Green [3, 16]: 70 | Plant response rating, Foxtail, Green [3, 17]: 70 | Plant response rating, Foxtail, Green [3, 18]: 95 | Plant response rating, Foxtail, Green [3, 19]: 85 | Plant response rating, Foxtail, Green [3, 20]: 0 | Plant response rating, Foxtail, Green [3, 21]: 0 | Plant response rating, Foxtail, Green [3, 22]: 0 | Plant response rating, Foxtail, Green [3, 23]: 15 | Plant response rating, Sowthistle [4, 16]: 80 | Plant response rating, Sowthistle [4, 17]: 95 | Plant response rating, Sowthistle [4, 18]: 100 | Plant response rating, Sowthistle [4, 19]: 98 | Plant response rating, Sowthistle [4, 20]: 0 | Plant response rating, Sowthistle [4, 21]: 80 | Plant response rating, Sowthistle [4, 23]: 100 | Plant response rating, Goosegrass [5, 16]: 65 | Plant response rating, Goosegrass [5, 17]: 75 | Plant response rating, Goosegrass [5, 18]: 80 | Plant response rating, Goosegrass [5, 19]: 75 | Plant response rating, Goosegrass [5, 20]: 5 | Plant response rating, Goosegrass [5, 21]: 60 | Plant response rating, Goosegrass [5, 22]: 80 | Plant response rating, Goosegrass [5, 23]: 98 | Plant response rating, Purslane [6, 16]: 65 | Plant response rating, Purslane [6, 17]: 65 | Plant response rating, Purslane [6, 18]: 75 | Plant response rating, Purslane [6, 19]: 65 | Plant response rating, Purslane [6, 20]: 0 | Plant response rating, Purslane [6, 21]: 60 | Plant response rating, Purslane [6, 22]: 90 | Plant response rating, Purslane [6, 23]: 100 | Plant response rating, Bluegrass [7, 16]: 15 | Plant response rating, Bluegrass [7, 24]: 25 | Plant response rating, Bluegrass [7, 18]: 35 | Plant response rating, Bluegrass [7, 19]: 35 | Plant response rating, Bluegrass [7, 20]: 0 | Plant response rating, Bluegrass [7, 21]: 0 | Plant response rating, Bluegrass [7, 22]: 0 | Plant response rating, Bluegrass [7, 23]: 20 | Plant response rating, Chickweed [8, 16]: 75 | Plant response rating, Chickweed [8, 17]: 90 | Plant response rating, Chickweed [8, 18]: 100 | Plant response rating, Chickweed [8, 19]: 98 | Plant response rating, Chickweed [8, 23]: 95 | Plant response rating, Itchgrass [9, 16]: 25 | Plant response rating, Itchgrass [9, 17]: 50 | Plant response rating, Itchgrass [9, 18]: 65 | Plant response rating, Itchgrass [9, 19]: 65 | Plant response rating, Itchgrass [9, 20]: 0 | Plant response rating, Itchgrass [9, 21]: 0 | Plant response rating, Itchgrass [9, 22]: 0 | Plant response rating, Itchgrass [9, 23]: 5 | Plant response rating, Dallisgrass [10, 16]: 60 | Plant response rating, Dallisgrass [10, 17]: 65 | Plant response rating, Dallisgrass [10, 18]: 75 | Plant response rating, Dallisgrass [10, 19]: 70 | Plant response rating, Dallisgrass [10, 20]: 5 | Plant response rating, Dallisgrass [10, 21]: 10 | Plant response rating, Dallisgrass [10, 22]: 50 | Plant response rating, Dallisgrass [10, 23]: 95 | Plant response rating, Crabgrass, Large [11, 16]: 65 | Plant response rating, Crabgrass, Large [11, 17]: 70 | Plant response rating, Crabgrass, Large [11, 18]: 70 | Plant response rating, Crabgrass, Large [11, 19]: 70 | Plant response rating, Crabgrass, Large [11, 20]: 0 | Plant response rating, Crabgrass, Large [11, 21]: 20 | Plant response rating, Crabgrass, Large [11, 22]: 75 | Plant response rating, Crabgrass, Large [11, 23]: 98 | Plant response rating, Johnsongrass [12, 16]: 65 | Plant response rating, Johnsongrass [12, 17]: 75 | Plant response rating, Johnsongrass [12, 19]: 85 | Plant response rating, Johnsongrass [12, 20]: 0 | Plant response rating, Johnsongrass [12, 21]: 0 | Plant response rating, Johnsongrass [12, 22]: 75 | Plant response rating, Johnsongrass [12, 23]: 95 | Plant response rating, Morningglory [13, 16]: 50 | Plant response rating, Morningglory [13, 17]: 65 | Plant response rating, Morningglory [13, 18]: 70 | Plant response rating, Morningglory [13, 19]: 70 | Plant response rating, Morningglory [13, 20]: 0 | Plant response rating, Morningglory [13, 21]: 0 | Plant response rating, Morningglory [13, 22]: 0 | Plant response rating, Morningglory [13, 23]: 100 | Plant response rating, Barnyardgrass [14, 16]: 75 | Plant response rating, Barnyardgrass [14, 24]: 75 | Plant response rating, Barnyardgrass [14, 18]: 80 | Plant response rating, Barnyardgrass [14, 19]: 75 | Plant response rating, Barnyardgrass [14, 20]: 0 | Plant response rating, Barnyardgrass [14, 21]: 0 | Plant response rating, Barnyardgrass [14, 22]: 0 | Plant response rating, Barnyardgrass [14, 23]: 10 | Plant response rating, Ragweed [15, 16]: 90 | Plant response rating, Ragweed [15, 17]: 95 | Plant response rating, Ragweed [15, 18]: 95 | Plant response rating, Ragweed [15, 19]: 95 | Plant response rating, Ragweed [15, 20]: 30 | Plant response rating, Ragweed [15, 21]: 50 | Plant response rating, Ragweed [15, 23]: 98
